Experiments:
Format in all cases: cell-based
[1] = target: T1, EGFR L858R (BaF3-L858R cells) (Homo sapiens, UniProt P00533, L858R); assay: Cell degradation of EGFR, HTRF assay, BaF3-L858R cells; conditions: 16 h treatment; for DC50: EGFR degradation; for Dmax: maximum percentage of degradation
T1 construct: host or cells: BaF3
How it was run: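 BaF3-L858R cells treated 16 h at 37° C, 5% CO2 with compound (top 10 uM final, 5-fold, 8 doses, 0.1% DMSO). DC50 from four-parameter fit; Dmax is maximum percent degradation.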

[2] = target: T2, EGFR-L858R/C797S (H1975-clone #8 cells) (Homo sapiens, UniProt P00533, C797S/L858R); assay: Cell degradation of EGFR, HTRF assay, H1975-clone#8 (L858R/C797S) cells; conditions: 16 h treatment; for DC50: EGFR degradation; for Dmax: maximum percentage of degradation
T2 construct: expressed in transfected cells; host or cells: H1975 (endogenous EGFR knocked out, clone #8)

[3] = target: T3, p-EGFR L858R (BaF3-L858R cells) (Homo sapiens, UniProt P00533, L858R); assay: Cell p-EGFR inhibition assay, HTRF, BaF3-L858R cells; conditions: 16 h treatment; for Imax (%): maximum percentage of pEGFR inhibition; for IC50: pEGFR inhibition
T3 construct: host or cells: BaF3
Protocol: BaF3-L858R (abbv. L858R) cell were purchased from Kangyuan Bochuang Biotechnology (Beijing) Co., Ltd.
(§1) H1975-#23 and BaF3-L858R cells are treated with compounds diluted in 0.1% DMSO cell culture medium on day 2, incubate for 16 h, 37° C., 5% CO2. the final concentration of compounds in all assay is start with 10 uM, 5-fold dilution, total 8 doses were included.
(§2) After 16 h treatment, for H1975-#23 cells, add 50 ul HTRF 1× lysis buffer to each well; for BaF3-L858R cells, add 20 μl 4× lysis buffer to each well; seal the plate and incubate 1 hour at room temperature on a plate shaker; Once the cells are lysed, 16 μL of cell lysate are transferred to a PE 384-well HTRF detection plate; 4 μL of pre-mixed HTRF antibodies are added to each well; Cover the plate with a plate sealer, spin 1000 rpm for 1 min, Incubate overnight at room temperature; Read on BMG PheraStar with HTRF protocol (337 nm-665 nm-620 nm).
(§3) High control=Cell group with added DMSO and without compound, indicating microplate readings without p-EGFR inhibited.
(§4) Imax is the maximum percentage of inhibition.
(§5) The IC50 value of a compound can be obtained by fitting the following equation.
(§6) Wherein, X and Y are known values, and IC50, Hillslope, Top and Bottom are the parameters obtained by fitting with software. […] The experimental data were fitted by calculating and analyzing with Dotmatics data analysis software.

[4] = target: p-EGFR Del19/C797S (H1975-clone #23 cells) (Homo sapiens, UniProt P00533); assay: Cell p-EGFR inhibition assay, HTRF, H1975-clone#23 (DEL19/C797S) cells; conditions: 16 h treatment; for Imax (%): maximum percentage of pEGFR inhibition; for IC50: pEGFR inhibition
Protocol: The EGFR over-expressed cells then underwent knockout, in which the EGFR targeting sgRNA was designed to only target the endogenous EGFR copies and preserve the exogenous EGFR copies. Followed by the knockout, the edited H1975 cells were seeded in 96 well plates at the concentration of 1 cell/well, cultured for about 2 weeks to allow single clones formation. The formed clones were screened by DNA sequencing and whole exon sequencing analysis for the desired edition.
as §1, §2, §3, §4, §5, §6

| DC50 [1] [nM] | Dmax [1] [%] | DC50 [2] [nM] | Dmax [2] [%] | Imax (%) [3] [%] | IC50 [3] [nM] | Imax (%) [4] [%] | IC50 [4] [nM] | SMILES |
| --- | --- | --- | --- | --- | --- | --- | --- | --- |
| 1.19 | 86.6 | 1.28 | 88.7 | 95.61 | 15 | 100.06 | 2.46 | COc1cc2c(cc1N1CCN(C3CCN(c4cc(F)c([C@H]5CCC(=O)NC5=O)c(F)c4)CC3)CC1)N1C[C@@H]3CC[C@H](COc4c(c(C)nn4C)-c4cc(cc(C)n4)C(=O)/N=C/1N2)C3 [Example 152, (R)-3-(2,6-difluoro-4-(4-(4-((7^1R,7^3S,E)-5^5-methoxy-1^1,1^3,2^6-trimethyl-3-oxo-5^2,5^3-dihydro-1^1H,5^1H-9-oxa-4-aza-5(2,1)-benzo[d]imidazola-2(2,4)-pyridina-1(4,5)-pyrazola-7(1,3)-cyclopentanacyclononaphane-5^6-yl)piperazin-1-yl)piperidin-1-yl)phenyl)piperidine-2,6-dione] |
| 3.2 | 89.3 | 5.24 | 62.4 | 99.9 | 5.7 | 100.1 | 1.8 | COC[C@@H]1CN(c2ccc3c(c2)N2C[C@@H]4CC[C@H](COc5c(cnn5C)-c5cc(cc(C)n5)C(=O)/N=C/2N3)C4)CCN1CC1CN(c2ccc3c(c2)C(=O)N(C2CCC(=O)NC2=O)C3=O)C1 (stereo partly drawn) [Example 69, 5-(3-(((S)-4-((7^1R,7^3S,E)-1^1,2^6-dimethyl-3-oxo-5^2,5^3-dihydro-1^1H,5^1H-9-oxa-4-aza-5(2,1)-benzo[d]imidazola-2(2,4)-pyridina-1(4,5)-pyrazola-7(1,3)-cyclopentanacyclononaphane-5^6-yl)-2-(methoxymethyl)piperazin-1-yl)methyl)azetidin-1-yl)-2-(2,6-dioxopiperidin-3-yl)isoindoline-1,3-dione] |
| 4.99 | 90.1 | 3.16 | 89.3 | 91.67 | 1.25 | 100.52 | 2.48 | Cc1cc2cc(n1)-c1c(C)nn(C)c1OC[C@H]1CC[C@H](C1)CN1/C(=N/C2=O)Nc2ccc(N3CCN(C[C@@H]4CCN(c5cc(F)c([C@H]6CCC(=O)NC6=O)c(F)c5)C4)CC3)cc21 [Example 184, (R)-3-(2,6-difluoro-4-((S)-3-((4-((7^1R,7^3S,E)-1^1,1^3,2^6-trimethyl-3-oxo-5^2,5^3-dihydro-1^1H,5^1H-9-oxa-4-aza-5(2,1)-benzo[d]imidazola-2(2,4)-pyridina-1(4,5)-pyrazola-7(1,3)-cyclopentanacyclononaphane-5^6-yl)piperazin-1-yl)methyl)pyrrolidin-1-yl)phenyl)piperidine-2,6-dione] |
| 5.09 | 84.8 | 0.909 | 85.6 | 100 | 6.2 | 103.44 | 2.74 | COC[C@H]1CN(c2cc3c(cc2C)N/C2=N\C(=O)c4cc(C)nc(c4)-c4c(C)nn(C)c4OC[C@H]4CC[C@H](C4)CN23)CCN1C1CCN(c2cc(F)c([C@H]3CCC(=O)NC3=O)c(F)c2)CC1 [Example 172, (R)-3-(2,6-difluoro-4-(4-((R)-2-(methoxymethyl)-4-((7^1R,7^3S,E)-1^1,1^3,2^6° 5^5-tetramethyl-3-oxo-5^2,5^3-dihydro-1^1H,5^1H-9-oxa-4-aza-5(2,1)-benzo[d]imidazola-2(2,4)-pyridina-1(4,5)-pyrazola-7(1,3)-cyclopentanacyclononaphane-5^6-yl)piperazin-1-yl)piperidin-1-yl)phenyl)piperidine-2,6-dione] |
| 2.2 | 72.8 | 0.41 | 67.5 | 104.4 | 15.4 | 98.9 | 0.4 | Cc1cc2cc(n1)-c1cnn(C)c1OC[C@H]1CC[C@H](C1)CN1/C(=N/C2=O)Nc2ccc(N3CCC(N4CC(Nc5cc(F)c([C@H]6CCC(=O)NC6=O)c(F)c5)C4)CC3)cc21 [Example 112, (R)-3-(4-((1-(1-((7^1R,7^3S,E)-1^1,2^6-dimethyl-3-oxo-5^2,5^3-dihydro-1^1H,5^1H-9-oxa-4-aza-5(2,1)-benzo[d]imidazola-2(2,4)-pyridina-1(4,5)-pyrazola-7(1,3)-cyclopentanacyclononaphane-5^6-yl)piperidin-4-yl)azetidin-3-yl)amino)-2,6-difluorophenyl)piperidine-2,6-dione] |
| 0.74 | 90.2 | 3.72 | 86.9 | 89.17 | 1.04 | 99.96 | 1.56 | Cc1cc2cc(n1)-c1c(C)nn(C)c1OC[C@H]1CC[C@H](C1)CN1/C(=N/C2=O)Nc2ccc(N3CCN(CC4CN(c5cc(F)c([C@H]6CCC(=O)NC6=O)c(F)c5)C4)[C@@H](CF)C3)cc21 [Example 210, (R)-3-(2,6-difluoro-4-(3-(((R)-2-(fluoromethyl)-4-((7R,7^3S,E)-1^1,1^3,2^6-trimethyl-3-oxo-5^2,5^3-dihydro-1^1H,5^1H-9-oxa-4-aza-5(2,1)-benzo[d]imidazola-2(2,4)-pyridina-1(4,5)-pyrazola-7(1,3)-cyclopentanacyclononaphane-5^6-yl)piperazin-1-yl)methyl)azetidin-1-yl)phenyl)piperidine-2,6-dione] |
| 3.11 | 88.2 | 1.69 | 94.9 | 91.5 | 0.58 | 100.67 | 1.2 | Cc1cc2cc(n1)-c1c(C)nn(C)c1OC[C@H]1CC[C@H](C1)CN1/C(=N/C2=O)Nc2ccc(N3CCN(C4CCN(c5cc(F)c([C@H]6CCC(=O)NC6=O)c(F)c5)CC4)C[C@H]3C)cc21 [Example 190, (R)-3-(2,6-difluoro-4-(4-((R)-3-methyl-4-((7^1R,7^3S,E)-1^1,1^3,2^6-trimethyl-3-oxo-5^2,5^3-dihydro-1^1H,5^1H-9-oxa-4-aza-5(2,1)-benzo[d]imidazola-2(2,4)-pyridina-1(4,5)-pyrazola-7(1,3)-cyclopentanacyclononaphane-5^6-yl)piperazin-1-yl)piperidin-1-yl)phenyl)piperidine-2,6-dione] |
| 2.74 | 70.3 | 3.22 | 66 | 97.1 | 17.2 | 100.2 | 3 | COC[C@@H]1CN(c2ccc3c(c2)N2CC4CC[C@H](COc5c(cnn5C)-c5cc(cc(C)n5)C(=O)/N=C/2N3)C4)CCN1CC1CN(c2cc(F)c([C@H]3CCC(=O)NC3=O)c(F)c2)C1 [Example 86, (R)-3-(4-(3-(((S)-4-((7^1R,7^3S,E)-1^1,2^6-dimethyl-3-oxo-5^2,5^3-dihydro-1^1H,5^1H-9-oxa-4-aza-5(2,1)-benzo[d]imidazola-2(2,4)-pyridina-1(4,5)-pyrazola-7(1,3)-cyclopentanacyclononaphane-5^6-yl)-2-(methoxymethyl)piperazin-1-yl)methyl)azetidin-1-yl)-2,6-difluorophenyl)piperidine-2,6-dione] |
| 7.26 | 80.3 | 0.748 | 87.3 | 97.8 | 4.77 | 102.03 | 1.42 | Cc1cc2cc(n1)-c1c(C)nn(C)c1OC[C@H]1CC[C@H](C1)CN1/C(=N/C2=O)Nc2ccc(N3CCC(N(C)C4CN(c5cc(F)c([C@H]6CCC(=O)NC6=O)c(F)c5)C4)CC3)cc21 [Example 142, (R)-3-(2,6-difluoro-4-(3-(methyl(1-((7^1R,7^3S,E)-1^1,1^3,2^6-trimethyl-3-oxo-5^2,5^3-dihydro-1^1H,5^1H-9-oxa-4-aza-5(2,1)-benzo[d]imidazola-2(2,4)-pyridina-1(4,5)-pyrazola-7(1,3)-cyclopentanacyclononaphane-5^6-yl)piperidin-4-yl)amino)azetidin-1-yl)phenyl)piperidine-2,6-dione] |

Reference: patent US20240425523A1, “Compounds for the Degradation of EGFR Kinase” (Beigene Switzerland GMBH, priority 2023, published 2024)
